Data taken from US12661355B2, “Compounds and methods for inducing UCP1 expression” (The Regents of the University of California, priority 2020, dated 2026).
“Also recorded” adds a separate entry of the source.

What was measured:
Ucp1 = assay: Gene expression by qPCR in primary brown adipocytes; assay type: cell-based, mouse; settings: for expression of markers of brown adipocyte identity, mitochondrial function and fatty acid oxidation genes / endogenous Ucp1 expression: 10 μM; for endogenous Ucp1 expression: primary mouse brown adipocytes
Procedure: Primary brown adipocytes were isolated according to known methods. An established mouse brown adipocyte cell line was obtained from Dr. Bruce Spiegelman (Dana-Farber Cancer Institute, Boston, USA). To differentiate primary and immortalized brown adipocytes, cells were grown until confluency in DMEM containing 10% FBS, 25 mM glucose 1 mM pyruvate, 2 mM glutamine, 20 nM insulin, 1 nM T3, and antibiotics. Once confluent (day 0), differentiation was induced by supplementing the medium with 0.5 mM IBMX, 0.5 μM dexamethasone, and 0.125 mM indomethacin, for 2 days. Differentiation was continued in the original medium (without IBMX, dexamethasone and indomethacin) for 7-10 days.
RNA levels were measured by qPCR according to known methods. Briefly, RNA was extracted with TRIzol (Invitrogen) and reverse transcribed with iScript (Bio-Rad). Real-time PCR analysis was performed with a CFX Connect (Bio-Rad).
Mouse RNA levels were measured by qPCR according to known methods. Data were normalized to B2m and Tbp reference genes. Human RNA was extracted using an RNA Mini Plus kit (Zymo) and gene expression determined by Taqman assay. The 1-step qPCR was run on a QuantStudio 12K Flex Real Time PCR System (ThermoFisher) using the following protocol: 50° C. for 5 minutes, 95° C. for 20 seconds, 40 cycles of 95° C. for 15 seconds and 60° C. for 60 seconds. Data were normalized to PPIA and PSMB2 reference genes. For global gene expression analysis, RNA isolated from brown adipocytes treated with compounds as indicated (four biological replicates) was hybridized to Illumina mouse Ref 8 V2.0 bead chips at the University of California, Los Angeles Neuroscience Genomics Core as previously described. Data were processed with GenomeStudio V2011.1 using the quantile normalization, background subtraction, and a present call of P<0.05.

[1] = tested on: phospho-(Ser/Thr) PKA substrate; assay: Phosphorylation of PKA substrates by Western blot in brown adipocytes; assay type: cell-based, mouse; settings: overnight, 10 μM
Procedure: Cells and tissues were lysed in 10 mM Tris pH 7.5, 10 mM NaCl, 1 mM EDTA and 0.5% Triton X-100, supplemented with complete mini EDTA-free protease (Roche Diagnostics) and phosphatase (Cocktail 2 and 3, Sigma) inhibitors, followed by 10 second sonication. For analysis of mitochondrial proteins, mitochondria were isolated from cells by dual centrifugation, as described. Protein lysates were separated by SDS-PAGE and transferred to a nitrocellulose membrane. Transfer was confirmed by Ponceau staining (P7170, Sigma). After blocking in 5% milk, 0.1% Tween-20 in Tris-buffered saline (TBS), primary antibody was incubated overnight at 4° C. in 5% bovine serum albumin and 0.1% Tween-20 in TBS. Primary antibodies against ACTB (GTX109639, GeneTex), AKAP1 (5203, Cell Signaling), AKAP6 (07-087, Millipore), Cytochrome c (136F3, Cell Signaling), electron transport chain protein complexes (Total OXPHOS rodent WB antibody cocktail ab110413, Abcam), GAPDH (GTX100118, Genetex), active p38 MAPK (V1211, Promega), total p38 MAPK (8690, Cell Signaling), PGC1α (AB3242, Millipore), phospho-(Ser/Thr) PKA substrate (9621, Cell Signaling), PKA C-α (4782, Cell Signaling), PKA RII-β (ab75993, Abcam), and UCP1 (662045, Calbiochem) were used at 1:2000. […] Quantification using representative bands from the Ponceau staining was performed with ImageJ.

AKAP13 = target: T1, AKAP13 (Rattus norvegicus, UniProt F1M3G7); assay: DARTS in H9c2 cell extracts, AKAP13; assay type: binding; settings: 20 μM, 1 h
T1 construct: DARTS assay in H9c2 cell extracts treated with vehicle or 20 μM Z160 for 1 h; endogenous in cells; host or cells: rat H9c2 cells
Procedure: Rat H9c2 cells were grown in DMEM supplemented with 10% FBS, 25 mM glucose, 1 mM pyruvate, and 2 mM glutamine Neonatal rat ventricular myocytes (NRVM) were isolated and cultured as previously described. Briefly, 2-4 day old rats were sacrificed and myocytes and fibroblasts were isolated and separated using a Percoll density gradient. Following isolation, NRVMs were plated on gelatin-coated plates in DMEM containing 10% FBS, 25 mM glucose, 1 mM pyruvate, and 2 mM glutamine The next day, FBS was replaced by 1× insulin-transferrin-selenium supplement and the cells were treated with vehicle or 10 μM Z160 for 2 days, with or without 60 μM isoproterenol or 50 μM phenylephrine.
[…] assays were performed according to known methods. Briefly, BAT or cells within a 10 cm dish were lysed with 600 μl M-PER buffer containing protease and phosphatase inhibitors. Debris was pelleted by centrifugation at 18,000 g for 10 min at 4° C., and the lysates were harvested and supplemented with TNC buffer (50 mM Tris-HCl, 50 mM NaCl, 10 mM CaCl2). The lysates were split into two tubes and treated with either vehicle or 20 μM Z160 for 1 h at room temperature. For experiment with BAT, 100 μg of lysate was incubated with different Z160 concentrations. […]

T1 sequence (F1M3G7 whole entry): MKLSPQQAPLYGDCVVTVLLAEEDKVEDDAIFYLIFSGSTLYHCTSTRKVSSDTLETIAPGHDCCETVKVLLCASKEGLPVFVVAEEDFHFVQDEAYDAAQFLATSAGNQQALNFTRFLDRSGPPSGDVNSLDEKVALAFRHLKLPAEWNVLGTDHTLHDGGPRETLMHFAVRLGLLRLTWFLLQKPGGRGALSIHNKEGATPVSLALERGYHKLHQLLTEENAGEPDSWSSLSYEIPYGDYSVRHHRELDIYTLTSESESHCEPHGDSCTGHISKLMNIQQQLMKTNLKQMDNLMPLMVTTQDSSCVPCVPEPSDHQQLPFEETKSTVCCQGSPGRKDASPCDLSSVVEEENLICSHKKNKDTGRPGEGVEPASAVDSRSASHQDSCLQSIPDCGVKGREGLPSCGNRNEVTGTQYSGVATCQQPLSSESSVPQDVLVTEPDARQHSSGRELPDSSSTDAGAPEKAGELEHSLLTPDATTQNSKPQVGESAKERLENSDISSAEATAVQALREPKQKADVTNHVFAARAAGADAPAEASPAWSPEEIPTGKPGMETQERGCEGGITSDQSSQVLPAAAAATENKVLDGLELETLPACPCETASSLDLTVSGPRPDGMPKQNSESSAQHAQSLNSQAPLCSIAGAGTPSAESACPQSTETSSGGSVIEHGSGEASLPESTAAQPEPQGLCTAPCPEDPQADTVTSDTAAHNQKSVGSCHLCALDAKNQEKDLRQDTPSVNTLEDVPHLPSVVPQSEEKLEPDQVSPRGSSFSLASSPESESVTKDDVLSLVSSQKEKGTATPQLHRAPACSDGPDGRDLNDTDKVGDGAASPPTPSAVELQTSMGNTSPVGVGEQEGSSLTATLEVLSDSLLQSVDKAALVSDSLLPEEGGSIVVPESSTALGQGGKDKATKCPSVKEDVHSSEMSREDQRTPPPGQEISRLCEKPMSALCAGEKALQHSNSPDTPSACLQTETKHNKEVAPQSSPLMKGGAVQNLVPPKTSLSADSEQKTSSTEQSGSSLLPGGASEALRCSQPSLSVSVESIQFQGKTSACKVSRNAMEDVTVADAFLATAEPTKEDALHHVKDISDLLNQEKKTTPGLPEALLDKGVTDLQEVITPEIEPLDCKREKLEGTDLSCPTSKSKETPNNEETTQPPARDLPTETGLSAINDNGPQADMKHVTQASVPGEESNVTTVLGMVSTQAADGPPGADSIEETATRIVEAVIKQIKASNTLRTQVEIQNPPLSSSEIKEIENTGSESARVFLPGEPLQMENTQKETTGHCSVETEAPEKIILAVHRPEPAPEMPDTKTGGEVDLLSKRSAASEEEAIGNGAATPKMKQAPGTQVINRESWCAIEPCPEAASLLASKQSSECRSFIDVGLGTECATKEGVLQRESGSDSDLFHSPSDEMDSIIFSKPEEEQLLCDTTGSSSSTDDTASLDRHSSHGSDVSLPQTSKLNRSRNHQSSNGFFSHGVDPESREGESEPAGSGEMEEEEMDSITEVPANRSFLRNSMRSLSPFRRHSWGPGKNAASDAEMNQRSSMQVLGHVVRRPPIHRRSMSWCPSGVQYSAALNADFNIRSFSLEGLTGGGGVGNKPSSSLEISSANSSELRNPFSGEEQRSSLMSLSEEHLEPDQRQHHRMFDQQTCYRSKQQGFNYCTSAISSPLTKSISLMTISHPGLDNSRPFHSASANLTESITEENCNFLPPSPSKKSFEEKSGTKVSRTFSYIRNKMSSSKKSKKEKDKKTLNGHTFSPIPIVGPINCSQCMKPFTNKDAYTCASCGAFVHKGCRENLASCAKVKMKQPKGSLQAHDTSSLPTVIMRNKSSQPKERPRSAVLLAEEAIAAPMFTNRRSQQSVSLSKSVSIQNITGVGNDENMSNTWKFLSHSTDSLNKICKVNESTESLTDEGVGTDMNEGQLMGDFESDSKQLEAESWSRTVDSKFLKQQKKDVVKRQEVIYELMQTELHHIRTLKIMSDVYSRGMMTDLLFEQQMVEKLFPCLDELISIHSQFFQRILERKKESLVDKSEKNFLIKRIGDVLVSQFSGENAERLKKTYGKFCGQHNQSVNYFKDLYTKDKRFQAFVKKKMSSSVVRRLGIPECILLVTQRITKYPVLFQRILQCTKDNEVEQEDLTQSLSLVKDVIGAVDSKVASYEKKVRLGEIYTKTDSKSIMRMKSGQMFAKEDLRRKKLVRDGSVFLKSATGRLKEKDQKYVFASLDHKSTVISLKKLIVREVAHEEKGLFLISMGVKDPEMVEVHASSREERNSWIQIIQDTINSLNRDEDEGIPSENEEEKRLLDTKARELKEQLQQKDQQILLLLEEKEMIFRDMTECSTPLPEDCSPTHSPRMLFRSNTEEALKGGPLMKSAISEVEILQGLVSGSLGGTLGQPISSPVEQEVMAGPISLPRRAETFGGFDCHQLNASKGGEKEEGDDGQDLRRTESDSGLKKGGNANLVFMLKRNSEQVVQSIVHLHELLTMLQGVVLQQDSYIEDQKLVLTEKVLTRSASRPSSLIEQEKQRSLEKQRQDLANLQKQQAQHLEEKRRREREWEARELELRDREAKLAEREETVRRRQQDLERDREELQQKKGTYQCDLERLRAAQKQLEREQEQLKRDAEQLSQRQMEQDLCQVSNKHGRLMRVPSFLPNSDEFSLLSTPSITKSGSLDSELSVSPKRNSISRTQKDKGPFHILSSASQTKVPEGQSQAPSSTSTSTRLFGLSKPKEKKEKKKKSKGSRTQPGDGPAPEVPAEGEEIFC

## O=C(CSc1nc2ccccc2c(=O)[nH]1)Nc1ccc2c(c1)OCCO2 [AST070, N-(2,3-dihydro-1,4-benzodioxin-6-yl)-2-[(4-oxo-3,4-dihydroquinazolin-2-yl)sulfanyl]acetamide]
Ucp1; primary brown adipocytes
  expression of markers of brown adipocyte identity, mitochondrial function and fatty acid oxidation genes: promoted expression
Ucp1
  endogenous Ucp1 expression: 29 fold
[1]
  phosphorylation of PKA substrates: increased the levels of phosphorylation

## COc1ccc(NC(=O)CSc2nc3ccccc3c(=O)[nH]2)c(OC)c1 [Z160]
Ucp1; primary brown adipocytes
  expression of markers of brown adipocyte identity, mitochondrial function and fatty acid oxidation genes: promoted expression
Ucp1; primary brown adipocytes, 10 μM overnight
  expression of lipolytic enzymes (Atgl, Hsl) and FGF21 at the mRNA level: increased expression
Ucp1
  endogenous Ucp1 expression: 62 fold
[1]
  phosphorylation of PKA substrates: increased the levels of phosphorylation
AKAP13
  pronase susceptibility of AKAP13: altered pronase susceptibility; also recorded: change of AKAP13 conformation
